Laboratory results reported in the CheMixHub ionic liquid set.
± gives the uncertainty stated by the source.

Assay: xn = mol fraction of the nth substance listed
Conditions: 100 kPa

O=C(O)CC(O)(CC(=O)O)C(=O)O + CCCC[N+](CCCC)(CCCC)CCCC.[Cl-] + O
x2 = 0.1428, x1 = 0.1428
Conditions	electrical conductivity [S/m]	viscosity [mPa·s]
293.15 K	0.0384 ± 0.0039	620 ± 200
303.15 K	0.0639 ± 0.0064	380 ± 100
313.15 K	0.103 ± 0.01	245 ± 51
323.15 K	0.161 ± 0.016	161 ± 25
333.15 K	0.245 ± 0.024	108 ± 11

NC(=O)C[C@H](N)C(=O)O + CCCC[N+](CCCC)(CCCC)Cc1ccccc1.[Cl-] + O
electrical conductivity [S/m], frequency 0.001 MHz
Conditions	293.15 K	298.15 K	303.15 K	308.15 K	313.15 K
x1 = 0.0001802, x2 = 1.802e-05	0.0457 ± 0.0042	0.0482 ± 0.0042	0.0503 ± 0.0042	0.052 ± 0.0042	0.0553 ± 0.0042
x1 = 0.0001803, x2 = 5.405e-05	0.0516 ± 0.0042	0.0545 ± 0.0042	0.0572 ± 0.0042	0.0607 ± 0.0042	0.0639 ± 0.0042
x1 = 0.0001804, x2 = 9.008e-05	0.0589 ± 0.0042	0.066 ± 0.0042	0.0748 ± 0.0042	0.0813 ± 0.0042	0.0899 ± 0.0042
x1 = 0.0004504, x2 = 1.801e-05	0.0517 ± 0.0042	0.0574 ± 0.0042	0.059 ± 0.0042	0.0615 ± 0.0042	0.0657 ± 0.0042
x1 = 0.0004507, x2 = 5.403e-05	0.0603 ± 0.0042	0.0634 ± 0.0042	0.0663 ± 0.0042	0.0714 ± 0.0042	0.0753 ± 0.0042
x1 = 0.000451, x2 = 9.005e-05	0.0728 ± 0.0042	0.0771 ± 0.0042	0.0832 ± 0.0042	0.0889 ± 0.0042	0.0937 ± 0.0042
x1 = 0.0007205, x2 = 1.801e-05	0.057 ± 0.0042	0.0653 ± 0.0042	0.0683 ± 0.0042	0.0709 ± 0.0042	0.0773 ± 0.0042
x1 = 0.0007209, x2 = 5.402e-05	0.0678 ± 0.0042	0.072 ± 0.0042	0.0765 ± 0.0042	0.0809 ± 0.0042	0.0884 ± 0.0042
x1 = 0.0007213, x2 = 9.003e-05	0.0805 ± 0.0042	0.087 ± 0.0042	0.0917 ± 0.0042	0.0967 ± 0.0042	0.104 ± 0.0042
x1 = 0.0009904, x2 = 1.8e-05	0.0635 ± 0.0042	0.0749 ± 0.0042	0.0776 ± 0.0042	0.0796 ± 0.0042	0.0859 ± 0.0042
x1 = 0.000991, x2 = 5.4e-05	0.0716 ± 0.0042	0.0812 ± 0.0042	0.0854 ± 0.0042	0.0913 ± 0.0042	0.0954 ± 0.0042
x1 = 0.0009916, x2 = 9e-05	0.0886 ± 0.0042	0.0965 ± 0.0042	0.102 ± 0.0042	0.104 ± 0.0042	0.111 ± 0.0042
x1 = 0.00126, x2 = 1.8e-05	0.0698 ± 0.0042	0.0826 ± 0.0042	0.0859 ± 0.0042	0.0888 ± 0.0042	0.0951 ± 0.0042
x1 = 0.001261, x2 = 5.399e-05	0.0783 ± 0.0042	0.0903 ± 0.0042	0.0935 ± 0.0042	0.0999 ± 0.0042	0.113 ± 0.0042
x1 = 0.001262, x2 = 8.998e-05	0.102 ± 0.0042	0.105 ± 0.0042	0.108 ± 0.0042	0.112 ± 0.0042	0.127 ± 0.0042
x1 = 0.00153, x2 = 1.799e-05	0.086 ± 0.0042	0.092 ± 0.0042	0.0943 ± 0.0042	0.0983 ± 0.0042	0.11 ± 0.0042
x1 = 0.001531, x2 = 5.397e-05	0.0934 ± 0.0042	0.0997 ± 0.0042	0.105 ± 0.0042	0.108 ± 0.0042	0.115 ± 0.0042
x1 = 0.001532, x2 = 8.995e-05	0.107 ± 0.0042	0.111 ± 0.0042	0.116 ± 0.0042	0.121 ± 0.0042	0.138 ± 0.0042

viscosity [mPa·s]
Conditions	293.15 K	298.15 K	303.15 K	308.15 K	313.15 K
x1 = 0.0001802, x2 = 1.802e-05	0.959 ± 0.045	0.919 ± 0.045	0.882 ± 0.045	–	–
x1 = 0.0001803, x2 = 5.405e-05	0.967 ± 0.045	0.926 ± 0.045	0.885 ± 0.045	–	–
x1 = 0.0001804, x2 = 9.008e-05	0.978 ± 0.045	0.935 ± 0.045	0.898 ± 0.045	–	–
x1 = 0.0004504, x2 = 1.801e-05	0.965 ± 0.045	0.925 ± 0.045	0.888 ± 0.045	0.851 ± 0.045	0.798 ± 0.045
x1 = 0.0004507, x2 = 5.403e-05	0.974 ± 0.045	0.932 ± 0.045	0.892 ± 0.045	0.858 ± 0.045	0.802 ± 0.045
x1 = 0.000451, x2 = 9.005e-05	0.985 ± 0.045	0.941 ± 0.045	0.904 ± 0.045	0.862 ± 0.045	0.81 ± 0.045
x1 = 0.0007205, x2 = 1.801e-05	0.97 ± 0.045	0.931 ± 0.045	0.894 ± 0.045	0.857 ± 0.045	0.804 ± 0.045
x1 = 0.0007209, x2 = 5.402e-05	0.98 ± 0.045	0.938 ± 0.045	0.898 ± 0.045	0.864 ± 0.045	0.809 ± 0.045
x1 = 0.0007213, x2 = 9.003e-05	0.992 ± 0.045	0.947 ± 0.045	0.91 ± 0.045	0.868 ± 0.045	0.817 ± 0.045
x1 = 0.0009904, x2 = 1.8e-05	0.975 ± 0.045	0.936 ± 0.045	0.899 ± 0.045	0.863 ± 0.045	0.81 ± 0.045
x1 = 0.000991, x2 = 5.4e-05	0.985 ± 0.045	0.943 ± 0.045	0.904 ± 0.045	0.87 ± 0.045	0.815 ± 0.045
x1 = 0.0009916, x2 = 9e-05	0.997 ± 0.045	0.952 ± 0.045	0.916 ± 0.045	0.874 ± 0.045	0.825 ± 0.045
x1 = 0.00126, x2 = 1.8e-05	0.98 ± 0.045	0.941 ± 0.045	0.905 ± 0.045	0.869 ± 0.045	0.817 ± 0.045
x1 = 0.001261, x2 = 5.399e-05	0.99 ± 0.045	0.948 ± 0.045	0.909 ± 0.045	0.877 ± 0.045	0.822 ± 0.045
x1 = 0.001262, x2 = 8.998e-05	1.003 ± 0.045	0.958 ± 0.045	0.922 ± 0.045	0.88 ± 0.045	0.831 ± 0.045
x1 = 0.00153, x2 = 1.799e-05	0.984 ± 0.045	0.946 ± 0.045	0.91 ± 0.045	0.875 ± 0.045	0.823 ± 0.045
x1 = 0.001531, x2 = 5.397e-05	0.995 ± 0.045	0.954 ± 0.045	0.915 ± 0.045	0.883 ± 0.045	0.829 ± 0.045
x1 = 0.001532, x2 = 8.995e-05	1.008 ± 0.045	0.964 ± 0.045	0.929 ± 0.045	0.887 ± 0.045	0.839 ± 0.045
